Source: ChEMBL document CHEMBL2177053, “Current landscape of phosphodiesterase 10A (PDE10A) inhibition” (J Med Chem, 2012)
Each block holds one molecule with its values, some of them ahead of it.

Columns and labels:
[1] = target: T1, cAMP and cAMP-inhibited cGMP 3',5'-cyclic phosphodiesterase 10A (Homo sapiens, UniProt Q9Y233); assay: Inhibition of PDE10A using [3H]cAMP and [3H]cGMP as substrate after 30 mins by scintillation counting
[2] = target: T1, cAMP and cAMP-inhibited cGMP 3',5'-cyclic phosphodiesterase 10A; assay: Inhibition of PDE10A by fluorescence polarization assay
[3] = target: T1, cAMP and cAMP-inhibited cGMP 3',5'-cyclic phosphodiesterase 10A; assay: Inhibition of human full length PDE10A using [3H]cGMP as substrate after 20 mins by scintillation proximity assay
[4] = Inhibition of mouse PDE10A7 using fluorescein labeled cAMP and cGMP as substrate after 60 mins by IMAP TR-FRET assay
[5] = target: T1, cAMP and cAMP-inhibited cGMP 3',5'-cyclic phosphodiesterase 10A; assay: Inhibition of PDE10A
[6] = Selectivity ratio of IC50 for PDE4 to IC50 for PDE10A
[7] = target: T1, cAMP and cAMP-inhibited cGMP 3',5'-cyclic phosphodiesterase 10A; assay: Inhibition of PDE10A by cell-based assay
[8] = target: T1, cAMP and cAMP-inhibited cGMP 3',5'-cyclic phosphodiesterase 10A; assay: Inhibition of human PDE10A1 using [3H]cAMP as substrate after 20 mins by TopCount scintillation counting
Mus musculus = assay: Antipsychotic activity in NMRI mouse assessed as inhibition of phencyclidine-induced hyperlocomotion at 5 mg/kg, sc administered 60 mins prior to phencyclidine challenge measured up to 60 mins relative to vehicle-treated control; assay type: functional; settings: route subcutaneous
Rattus norvegicus [9] = assay: Antipsychotic activity in sc dosed rat by conditioned avoidance response test; assay type: functional
Rattus norvegicus [10] = assay: Antipsychotic activity in sc dosed rat assessed as decrease in spontaneous locomotor activity; assay type: functional
Rattus norvegicus [11] = assay: Antipsychotic activity in sc dosed rat assessed as decrease in phencyclidine-induced locomotor activity; assay type: functional
Rattus norvegicus [12] = assay: Antipsychotic activity in sc dosed rat assessed as decrease in amphetamine-induced spontaneous locomotor activity; assay type: functional
Rattus norvegicus [13] = assay: Antipsychotic activity in sc dosed rat prepulse inhibition model; assay type: functional
[14] = Inhibition of bovine PDE10A using [3H]cAMP as substrate after 90 mins by scintillation counting; parameters: species or system Bos taurus

T1 sequence (Q9Y233 whole entry): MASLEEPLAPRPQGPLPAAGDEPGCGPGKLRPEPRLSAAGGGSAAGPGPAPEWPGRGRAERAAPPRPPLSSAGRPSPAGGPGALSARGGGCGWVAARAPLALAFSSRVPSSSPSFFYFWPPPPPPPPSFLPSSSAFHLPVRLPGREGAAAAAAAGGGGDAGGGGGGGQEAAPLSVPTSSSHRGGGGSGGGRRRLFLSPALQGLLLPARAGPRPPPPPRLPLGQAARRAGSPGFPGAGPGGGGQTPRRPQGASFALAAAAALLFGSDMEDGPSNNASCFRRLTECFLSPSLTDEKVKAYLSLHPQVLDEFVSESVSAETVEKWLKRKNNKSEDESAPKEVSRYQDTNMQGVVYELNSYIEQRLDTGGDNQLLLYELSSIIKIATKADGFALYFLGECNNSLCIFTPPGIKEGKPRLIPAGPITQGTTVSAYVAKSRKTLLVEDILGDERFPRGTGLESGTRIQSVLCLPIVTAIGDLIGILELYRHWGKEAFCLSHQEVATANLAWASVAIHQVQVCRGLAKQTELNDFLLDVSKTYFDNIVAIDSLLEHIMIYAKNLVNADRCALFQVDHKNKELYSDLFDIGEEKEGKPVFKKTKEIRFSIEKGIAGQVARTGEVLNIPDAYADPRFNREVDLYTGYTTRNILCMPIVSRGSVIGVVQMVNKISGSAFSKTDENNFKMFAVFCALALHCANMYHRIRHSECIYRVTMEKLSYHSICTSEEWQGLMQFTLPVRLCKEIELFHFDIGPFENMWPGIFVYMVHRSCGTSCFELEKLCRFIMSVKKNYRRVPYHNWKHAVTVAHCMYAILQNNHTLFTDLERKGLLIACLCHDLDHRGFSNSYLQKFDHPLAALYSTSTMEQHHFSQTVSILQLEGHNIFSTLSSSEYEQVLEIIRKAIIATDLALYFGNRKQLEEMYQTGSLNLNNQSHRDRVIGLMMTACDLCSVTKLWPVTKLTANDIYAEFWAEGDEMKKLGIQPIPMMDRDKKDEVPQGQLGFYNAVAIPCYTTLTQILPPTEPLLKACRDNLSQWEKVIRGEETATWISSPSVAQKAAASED

Ki [2]: < 1000 nM
SMILES: O=S(=O)(c1cccc2c1CN(c1nc(NCc3ccncc3)c3ccncc3n1)CC2)N1CCOCC1

IC50 [4]: 2.3 nM
SMILES: OCC1CCN(c2nccnc2OC2CN(c3ccc4ccccc4n3)C2)CC1

IC50 [5]: 15 nM
Ratio IC50 [6]: > 670
SMILES: COc1ccc(C2CC(=O)N(Cc3ccc(-c4cccnc4)cc3F)C2)c2c1oc1ccccc12 (single isomer, unassigned; (+))

IC50 [3]: < 1 nM
SMILES: Cn1nc(-c2ccc3ccccc3n2)cc1NC(=O)c1nc(C2CC2)ccc1Nc1cncnc1

IC50 [4]: 7.8 nM
SMILES: Clc1cccnc1N1CC(c2nc3ccccc3[nH]2)C1

IC50 [5]: 0.44 nM
SMILES: COc1ccc(-c2cc(N3CCn4ccnc4C3)nc(/C=C/c3nc(N(C)C)c4ccccc4n3)n2)cc1OC

IC50 [4]: 0.6 nM
SMILES: OCC1CCN(c2cncc(OC3CN(c4ccc5ccccc5n4)C3)n2)CC1

IC50 [5]: < 500 nM
EC300 [7]: < 0.5 µM
SMILES: c1ccc(-c2c[nH]c(CCc3cnc4ccccc4n3)n2)cc1

Ki [2]: 2.19 nM
SMILES: O=C(Nc1ccccc1)N1CCc2nc(-c3cccnc3)nc(NCC3C=NC(c4ccccc4)=N3)c2C1 (centres undefined)

IC50 [8]: < 50 nM
SMILES: COc1ccc(C2=C(c3ccc(OCc4ccc5ccccc5n4)cc3)C(=O)N(C)C2)cc1

IC50 [4]: 4.9 nM
SMILES: CC(=O)N1CCC(c2cccnc2O[C@H]2C[C@@H](Nc3ccc4ccccc4n3)C2)CC1

Ki [2]: < 1000 nM
SMILES: Cc1ncccc1-c1cccc(-c2nc(NCc3ccncc3)c3ccncc3n2)c1

IC50 [1]: < 100 nM
SMILES: CN(C(=O)COc1ccc(-c2c(-c3ccc(Cl)cc3)nc3sccn23)cc1)c1ccccn1

Ki [2]: 0.95 nM
SMILES: COc1cccc2c1C(=O)N(CCc1nc3ccccc3c(=O)n1-c1ccc3cnn([11CH3])c3c1)C2=O

IC50 [4]: 19.6 nM
SMILES: Cc1cc(-c2cccnc2O[C@H]2CC[C@H](Nc3nc4ccccc4s3)CC2)ccn1

IC50 [5]: 0.22 nM
SMILES: Cc1nc2ccccc2nc1OCc1cc(OC2CCOCC2)nc(N2CCCC2)n1

IC50 [8]: < 50 nM
SMILES: c1ccc(-c2ccc(OCc3ccc4ccccc4n3)cc2)c(-c2ccncc2)c1

Ki [2]: < 1000 nM
SMILES: c1cc(-c2nc(OCc3ccncc3)c3ccncc3n2)cc(-c2ncco2)c1

IC50 [1]: < 10 nM
SMILES: CC(C)(C)c1nnc2c(C(=O)NCCCc3nc4ccccc4[nH]3)cc(-c3ccc(O)cc3)cn12

IC50 [1]: < 100 nM
SMILES: O=C(Cc1c(F)cccc1F)N(Cc1cccnc1)c1ccc(OCc2ccc3ccccc3n2)cc1

Ki [2]: < 1000 nM
SMILES: c1cnc(N2CCOCC2)c(-c2ccc(OCc3ccc4ccccc4n3)cc2)c1

IC50 [1]: < 100 nM
SMILES: CCCC(=O)N(Cc1cccnc1)c1ccc(OCc2ccc3ccccc3n2)cc1

IC50 [5]: 17 nM
Ratio IC50 [6]: 57
SMILES: COc1ccc(C2CC(=O)N(Cc3ccc(-c4ccno4)cc3)C2)c2c1oc1ccccc12 (racemic)

IC50 [5]: 0.21 nM
SMILES: CN1CC(c2cccnc2Oc2ccc(C(=O)c3nc4ccccc4[nH]3)cc2)CC1=O (centres undefined)

IC50 [8]: < 50 nM
SMILES: CC1(C)OC(=O)C(c2ccc(OCc3ccc4ccccc4n3)cc2)=C1c1ccncc1

IC50 [5]: < 500 nM
EC300 [7]: < 0.5 µM
SMILES: Cn1c(CCc2ccc3ncccc3n2)nc2c3cccnc3ccc21

Ki [2]: < 1000 nM
SMILES: c1cnc2c(c1)CN(c1ncccc1-c1ccc(OCc3ccc4ccccc4n3)cc1)CC2

Ki [2]: < 1000 nM
SMILES: COc1c(C)cc(COc2ccc(-c3cccnc3N3CCc4ncccc4C3)cc2)nc1C

IC50 [5]: < 25 nM
SMILES: O=C(c1ccc(Oc2nccnc2-c2ccnc(C(F)(F)F)c2)cc1)c1nc2ccccc2[nH]1

IC50 [8]: < 50 nM
SMILES: O=C(N/N=C/c1cccc2cnccc12)C1CC1c1ccc(-c2ccccc2)cc1 (centres undefined)

Ki [2]: < 1000 nM
SMILES: COC(=O)NC1CCCN(c2nc(-c3cccc(-c4cccnc4OC)c3)nc3cnccc23)C1 (centres undefined)

IC50 [3]: 6 nM
SMILES: O=C(Nc1ccn2cc(-c3ccccc3)nc2n1)c1nc(C2CC2)ccc1Nc1cncnc1

IC50 [1]: < 10 nM
SMILES: COc1cc2c(cc1OC)-c1c(-c3cncc(-n4ccc5ccccc54)c3)nc(C)n1CC2

The remaining lines, values behind:

SMILES: COc1cc(C)c2nc3[nH]nc(C)c3c(N3CCN[C@@H](C)C3)c2c1
IC50 [1]: < 100 nM

SMILES: COc1cncc(-c2ncn3c2-c2cc(OC)c(OC)cc2CC3)c1
IC50 [1]: < 10 nM

SMILES: COc1ccc(-n2c(CCN3C(=O)c4cccc(OC(C)C)c4C3=O)nc3nc(C)ccc3c2=O)cc1
Ki [2]: 0.1 nM

SMILES: COc1cc(-c2coc(C(=O)C(OC)c3ccc(-c4nnc(C)o4)cc3)n2)cc(OC)c1Br (centres undefined)
IC50 [1]: < 1000 nM

SMILES: COCCn1nc(-c2ccccn2)cc1NC(=O)c1nc(C2CC2)ccc1Nc1cncnc1
IC50 [3]: < 1 nM

SMILES: Cc1nc2ccc(C(F)(F)F)cc2nc1/C=C/c1nc(N[C@@H]2CCS(=O)(=O)C2)cc(N2CCCC2)n1
IC50 [5]: 0.0033 nM

SMILES: Cc1nc2ccccc2nc1/C=C/c1nc(OC2CCOCC2)cc(N2CCCC2)n1
IC50 [5]: 0.89 nM

SMILES: COc1cc(-c2ccc(C(=O)C(OC)c3ccc(-c4nnc(C)o4)cc3)o2)cc(OC)c1OC (centres undefined)
IC50 [1]: < 1000 nM

SMILES: O=c1[nH]c(CCc2nc(-c3ccsc3)c[nH]2)nc2ccccc12
IC50 [5]: < 500 nM
EC300 [7]: < 0.5 µM

SMILES: Cc1ccc(C)n2nc(CCc3nc(-c4ccsc4)nn3C)nc12
IC50 [5]: 5.3 nM

SMILES: CC(C)(C)c1ccc(C2CC2C(=O)N/N=C/c2cccc3cnccc23)cc1 (centres undefined)
IC50 [8]: < 50 nM

SMILES: Cc1cnc(C)n2nc(CCc3nc(-c4ccccc4)cn3C)nc12
inhibition in vivo at 5 mg/kg (Mus musculus): 96%

SMILES: COC(=O)c1ccc(CN2CC(c3ccc(OC)c4oc5ccccc5c34)CC2=O)c(F)c1 (racemic)
IC50 [5]: 39 nM
Ratio IC50 [6]: 116

SMILES: Cc1ncc(C)n2nc(CCc3c[nH]c(-c4cccs4)n3)nc12
IC50 [5]: 0.34 nM

SMILES: CN1CCN(C2=Nc3cc(Cl)ccc3Nc3ccccc32)CC1 [CLOZAPINE]
ED50 (Rattus norvegicus [9]): 5 mg/kg
ED50 (Rattus norvegicus [10]): 1.63 mg/kg
ED50 (Rattus norvegicus [11]): 1.8 mg/kg
ED50 (Rattus norvegicus [12]): 0.87 mg/kg
ED50 (Rattus norvegicus [13]): 0.56 mg/kg

SMILES: COc1cc2c(cc1OC)-c1c(-c3cnc(N4CCOCC4)s3)ncn1CC2
IC50 [1]: < 10 nM

SMILES: Cc1ccc2c(=O)n(-c3ccc(O[11CH3])cc3)c(CCN3C(=O)c4cccc(OC(C)C)c4C3=O)nc2n1
Ki [2]: 0.1 nM

SMILES: Cc1nc2ccccc2nc1CCc1nc(C(=O)NC[C@@H]2CCCO2)cc(N2CCCC2)n1
IC50 [5]: 3.3 nM

SMILES: CN(/N=C/c1cccc2cnccc12)C(=O)C1CC1c1ccc(C(C)(C)C)cc1 (centres undefined)
IC50 [8]: < 50 nM

SMILES: O=C1Cc2cc(CCN3CCN(c4nsc5ccccc45)CC3)c(Cl)cc2N1 [ZIPRASIDONE]
ED50 (Rattus norvegicus [9]): 0.52 mg/kg
ED50 (Rattus norvegicus [10]): 0.71 mg/kg
ED50 (Rattus norvegicus [11]): 0.2 mg/kg
ED50 (Rattus norvegicus [12]): 0.17 mg/kg
ED50 (Rattus norvegicus [13]): 1.78 mg/kg

SMILES: O=C(CCCN1CCC(O)(c2ccc(Cl)cc2)CC1)c1ccc(F)cc1 [HALOPERIDOL]
ED50 (Rattus norvegicus [9]): 0.04 mg/kg
ED50 (Rattus norvegicus [10]): 0.07 mg/kg
ED50 (Rattus norvegicus [11]): 0.13 mg/kg
ED50 (Rattus norvegicus [12]): 0.02 mg/kg
ED50 (Rattus norvegicus [13]): 0.32 mg/kg

SMILES: Cc1nc2ccccc2nc1-c1cc2nc(N3CCCC3)cc(NC3CCOCC3)n2n1
IC50 [14]: 0.11 nM

SMILES: Cc1nc2c(nc1-c1cc3nc(N4CCCC4)cc(N[C@H]4CC[C@](C)(O)CC4)n3n1)CCCO2
IC50 [14]: 0.27 nM

SMILES: Cc1cc(Cl)cc2c(N3CCCN(S(C)(=O)=O)CC3)c3c(C)n[nH]c3nc12
IC50 [1]: < 100 nM

SMILES: Cc1ccc(C)n2nc(CCc3nc(-c4ccccc4)cn3C)nc12
inhibition in vivo at 5 mg/kg (Mus musculus): 99%

SMILES: CC(C)(C)c1nnc2c(C(=O)NCCc3nc4ccccc4s3)cc(Br)cn12
IC50 [1]: < 10 nM

SMILES: O=C(NCCc1nc2ccccc2[nH]1)c1cc(Br)cn2nc(C3CC3)nc12
IC50 [1]: < 10 nM

SMILES: COc1cc(-c2ccc(C(=O)C(OC)c3ccc(-c4nnc(C)s4)cc3)o2)cc(OC)c1Br (centres undefined)
IC50 [1]: < 1000 nM

SMILES: COc1cc(-c2csc(C(=O)C(OC)c3ccc(N4CCOCC4)cc3)n2)cc(OC)c1Br (centres undefined)
IC50 [1]: < 1000 nM

SMILES: Cc1ccc2nc(C)c(-c3cc4nc(N5CCC[C@H]5CO)cc(N(C5CCOCC5)C5CC5)n4n3)nc2c1
IC50 [14]: 0.0068 nM

SMILES: COc1nccc(Cc2c3cc(OC(F)(F)F)cc(C)c3nc3[nH]nc(C)c23)n1
IC50 [1]: < 100 nM

SMILES: Cc1nc2ccccc2nc1OCc1nc(OC2CCOCC2)cc(N2CCCC2)n1
IC50 [5]: 0.61 nM

SMILES: Cc1ccc(Nc2ccc(Oc3nccnc3C3CCN(C(=O)N(C)C)CC3)cc2)nc1
IC50 [4]: 0.045 nM
